# Laboratory results: PubChem BioAssay (NCI)
# Several values for one entry are separate records, joined by “and”; a condition that tells them apart may be missing. Identical values can stand only once.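 A five-concentration, 48-hour dose response in 96-well plates underlies each endpoint, interpolated linearly between surrounding concentrations. GI50 = concentration required for 50% inhibition of growth. At the TGI there is no net growth.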
# Key:
# Experiment in all cases: NCI-60 cell line screen, 48 h
# ACHN renal = test system: ACHN renal
# EKVX NSCLC = test system: EKVX NSCLC
# HCC-2998 colon = test system: HCC-2998 colon
# M14 melanoma = test system: M14 melanoma
# RPMI-8226 leukemia = test system: RPMI-8226 leukemia
# SR leukemia = test system: SR leukemia
# RXF 393 renal = test system: RXF 393 renal
# TK-10 renal = test system: TK-10 renal
SMILES,TGI (ACHN renal),TGI (EKVX NSCLC),TGI (HCC-2998 colon),TGI (M14 melanoma),TGI (RPMI-8226 leukemia),TGI (SR leukemia),GI50 (ACHN renal),GI50 (EKVX NSCLC),GI50 (HCC-2998 colon),GI50 (M14 melanoma),GI50 (RPMI-8226 leukemia),GI50 (RXF 393 renal),TGI (RXF 393 renal),GI50 (SR leukemia),GI50 (TK-10 renal),TGI (TK-10 renal)
CC1=CCC2CC1C(C(=O)c1c[nH]c3ccccc13)=NC2(C)C (centres undefined),> 100 µM,> 100 µM,> 100 µM,> 100 µM,> 100 µM,> 100 µM,,,,,,,,,,
CC1=C(C#N)C23C(=O)N(c4ccccc4)C(=O)C2=C(O)C=CC3(O)N1Cc1ccc(Cl)cc1Cl (centres undefined),25.2 µM,21.3 µM,3.82 µM,16.1 µM,4.22 µM,4.49 µM,12.6 µM,9.43 µM,1.81 µM,3.43 µM,1.63 µM,1.87 µM,3.87 µM,1.85 µM,2.79 µM,11.9 µM
NC(=S)N/N=C/c1ccc(OC(=O)COc2cc(Cl)c(Cl)cc2Cl)cn1,> 100 µM,,> 100 µM,5.75 µM,> 100 µM,> 100 µM,3.03 µM,,5.84 µM,2.38 µM,7.29 µM,3.16 µM,21.4 µM,4.7 µM,41.9 µM,> 100 µM
Nc1ncc(-c2ccc3ncnc(Nc4cccc(Cl)c4)c3c2)cn1,,,,,,,0.0232 µM,,,,0.206 µM,,,0.268 µM,,
Cc1ccc(CNc2ccc3nc(CCC4CCCCC4)[nH]c3c2)cc1,9.65 µM,6.47 µM,4.35 µM,3.9 µM,4.64 µM,8.74 µM,3.09 µM,2.12 µM,2.19 µM,1.91 µM,2.03 µM,2.06 µM,5.38 µM,2.91 µM,2.87 µM,10.4 µM
Cc1ccc(S(=O)(=O)ON2C(=O)c3cccc4cc([N+](=O)[O-])cc(c34)C2=O)cc1,> 100 µM,> 100 µM,58.9 µM,> 100 µM,> 100 µM,> 100 µM,,,,,,,> 100 µM,,,> 100 µM
COc1ccc2c(c1)c(-c1nc(-c3cn(C)c4ccncc34)cs1)cn2C,3.11 µM,3.56 µM,3.38 µM,3.29 µM,,,1.73 µM,1.77 µM,1.89 µM,1.7 µM,,1.71 µM,3.21 µM,,1.49 µM,3.06 µM
CCSC[C@@H]1C[C@](O)(c2ccc(Cl)cc2)[C@@H](c2ccc(Cl)cc2)O1,36.6 µM,40.7 µM,39.3 µM,29.6 µM,51.2 µM,28.2 µM,19.6 µM,17.3 µM,20.3 µM,15.3 µM,20.8 µM,23.2 µM,38.5 µM,11.1 µM,17.8 µM,36.3 µM
CN(C)c1ccc(/C=N/NC(N)=S)nc1,> 100 µM,> 100 µM,> 100 µM,5.23 µM,> 100 µM,> 100 µM,2.55 µM,3.09 µM,3.35 µM,2.28 µM,3.21 µM,4.16 µM,> 100 µM,2.73 µM,7.61 µM,> 100 µM
Fc1cccc(COc2ccc(Nc3ncnc4onc(-c5ccccc5)c34)cc2)c1,> 100 µM,> 100 µM,16.8 µM,> 100 µM,> 42 µM,> 100 µM,3.38 µM,1.61 µM,0.287 µM,0.179 µM,0.0497 µM,0.219 µM,1.35 µM,0.0884 µM,1.21 µM,36.1 µM
COc1cc2nc(Nc3cccc(Cl)c3)nc(N)c2cc1OC,23.8 µM,27 µM,3.57 µM,3.73 µM,5.34 µM,,11.4 µM,12.9 µM,1.89 µM,1.87 µM,2.11 µM,16.9 µM,31.3 µM,,14.2 µM,37.8 µM
CCC(CC)n1cnc2c(-c3cnc(N)cn3)nc(N3CC4CCC(C3)O4)nc21,> 100 µM,,> 100 µM,> 100 µM,5.75 µM,> 100 µM,0.324 µM,,0.465 µM,0.151 µM,0.102 µM,0.153 µM,1.6 µM,0.351 µM,0.168 µM,5.15 µM
Cc1cc(OCc2nnc3n2S(=O)(=O)c2ccccc2N3C)ccc1Cl,53 µM,> 100 µM,> 100 µM,> 100 µM,,,,,,,,,60.1 µM,,,> 100 µM
CSc1ccc(C2=NN(C(C)=O)C(c3ccc(-c4cc(Cl)c(Cl)cc4Cl)o3)C2)cc1 (centres undefined),29.9 µM,30.6 µM,29.6 µM,,41 µM,,15.8 µM,14.9 µM,15.8 µM,,10.9 µM,17.6 µM,35.1 µM,,24.8 µM,50.3 µM
COc1cc(-c2nn(-c3cccc(NC(=O)Nc4ccc(Cl)c(C(F)(F)F)c4)c3)cc2-c2ccncc2)ccc1Cl,15.6 µM,,7.3 µM,3.71 µM,3.25 µM,2.48 µM,1.1 µM,,1.55 µM,1.08 µM,0.868 µM,1.18 µM,6.29 µM,0.884 µM,1.51 µM,13.5 µM
CC1(C)N=C(N)N=C(N)N1c1ccc(CNC(=O)Nc2ccc(S(=O)(=O)F)c(Cl)c2)c(Cl)c1,> 100 µM,,> 100 µM,> 100 µM,> 100 µM,> 100 µM,5.28 µM,,1.11 µM,1.24 µM,1.43 µM,0.525 µM,> 100 µM,0.167 µM,8.39 µM,> 100 µM
C[C@@H]1C[C@H](N)C[C@H](c2ccncc2NC(=O)c2ccc(F)c(-c3c(F)cccc3F)n2)C1,24.5 µM and > 10 µM,21.1 µM and > 10 µM,18 µM and > 10 µM,27.2 µM and > 10 µM,11.4 µM and > 10 µM,,12.1 µM and > 10 µM,4.35 µM and > 10 µM,3.42 µM and 4.16 µM,12.9 µM and 2.35 µM,0.592 µM and 0.939 µM,11 µM and 7.73 µM,26 µM and > 10 µM,,13.1 µM and > 10 µM,26.8 µM and > 10 µM
COc1nc(N)nc2c1ncn2C1CC(O)C(CO)O1 (centres undefined),> 100 µM,> 100 µM,,> 100 µM,> 100 µM,> 100 µM,,,,,,,> 100 µM,,,> 100 µM
CCN1CCN(CCNc2nccc(-c3c(-c4ccc(F)c(O)c4)nc4occn34)n2)S1(=O)=O,> 100 µM,> 100 µM,> 100 µM,> 100 µM,,> 100 µM,3.44 µM,6.81 µM,6.19 µM,4.28 µM,,2.51 µM,> 100 µM,7.46 µM,35.6 µM,> 100 µM
CC(=O)O.CN1[CH-]N(Cc2ccc(C#N)cc2)c2ccccc21.[Ag+],30.2 µM,> 100 µM,> 100 µM,32.7 µM,> 100 µM,,16.3 µM,> 100 µM,> 100 µM,16.9 µM,31.3 µM,14 µM,28.3 µM,,18 µM,32 µM
COc1ccc(Nc2nc(NCCNc3ccnc4cc(Cl)ccc34)nc(N3CCOCC3)n2)cc1,18.1 µM,,3.88 µM,3.47 µM,13.1 µM,7.36 µM,4.77 µM,,2.08 µM,1.86 µM,2.75 µM,1.89 µM,8.92 µM,2.01 µM,7.64 µM,20.6 µM
C=C(C)[C@@H]1CC[C@]2(CO)CC[C@]3(C)[C@H](CC[C@@H]4[C@@]5(C)CCCNC(C)(C)[C@@H]5CC[C@]43C)[C@@H]12,3.09 µM,3.03 µM,2.93 µM,3.13 µM,4.51 µM,,1.7 µM,1.55 µM,1.51 µM,1.58 µM,1.94 µM,1.68 µM,3.18 µM,,1.76 µM,3.5 µM
c1ccc(SC(Sc2ccccc2)=C2CCC2)cc1,> 100 µM,> 100 µM,,> 100 µM,> 100 µM,> 100 µM,,,,,,,> 100 µM,,,> 100 µM
Oc1ccccc1-c1nn(CNc2ccc(Cl)cc2)c(=S)o1,,> 100 µM,,> 100 µM,> 100 µM,43.4 µM,,> 100 µM,,28.3 µM,> 100 µM,19.9 µM,48.5 µM,16 µM,1.53 µM,> 100 µM
CCOC(=O)c1[nH]c2cc(Cl)ccc2c1[C@@H](C(=O)NC(C)(C)C)N(CC)C(=O)CCCCC#Cc1cccc2c1CN(C1CCC(=O)NC1=O)C2=O (some centres undefined),13.3 µM,45.5 µM,58 µM,17.7 µM,2.88 µM,,1.42 µM,1.39 µM,0.225 µM,0.213 µM,0.185 µM,0.113 µM,3.91 µM,,2.65 µM,16.1 µM
CSC(=NC(=O)c1ccccc1Cl)SCCSC(=NC(=O)c1ccccc1Cl)SC,> 100 µM,> 100 µM,> 100 µM,> 100 µM,> 100 µM,,,,,,,,> 100 µM,,,> 100 µM
